From patent US20020103380A1, “Thiourea and urea liquid-phase combinatorial libraries: synthesis and apoptosis induction” (Parker Hughes Institute, priority 1999, published 2002)
In brackets after ≈: the same amount, converted by molar mass.

Columns and labels:
[1] = compound stability remark in Table 1; format: physicochemical
[2] = test system: human tumor cell lines; assay: MTT assays, cell line not given; format: cell-based; conditions: cell line not stated; for relative cytotoxic / biological activity: MTT; for IC50: Homo sapiens
Experimental: (§1) The cytotoxicity assay of various CL2 compounds against human tumor cell lines was performed using the MTT (3-[4,5-dimethylthiazol-2-yl]-2,5-diphenyl tetrazolium bromide) assay (Boehringer Mannheim Corp., Indianapolis, Ind.). Briefly, exponentially growing tumor cells were seeded into a 96-well plate at a density of 2.5×10^4 cells/well and incubated for 36 hours at 37° C. prior to compound exposure. On the day of treatment, culture medium was carefully aspirated from the wells and replaced with fresh medium containing the CL2 compounds at concentrations ranging from 0.0 to 100 μM. Triplicate wells were used for each treatment.
(§2) Human cell lines were obtained from American Type Culture Collection (Rockville, Md.) and maintained as a continuous cell line in Dulbecco's modified Eagles' medium supplemented with 10% fetal bovine serum and antibiotics. Cells used in this study include human leukemia cells (NALM-6 and MOLT-3).
(§3) The cells were incubated with the various compounds for 24-36 hours at 37° C. in a humidified 5% CO2 atmosphere. To each well, 10 μl of MTT (0.5 mg/ml final concentration) was added and the plates were incubated at 37° C. for 4 hours to allow MTT to form formazan crystals by reacting with metabolically active cells. The formazan crystals were solubilized overnight at 37° C. in a solution containing 10% SDS in 0.01 M HCl. The absorbance of each well was measured in a microplate reader (Labsystems) at 540 nm and a reference wavelength of 690 nm. To translate the OD540 values into the number of live cells in each well, the OD540 values were compared to those on standard OD540-versus-cell number curves generated for each cell line. The percent survival was calculated using the formula:
(§4) % Survival=live cell number [test]/live cell number [control]×100
(§5) The IC50 values were calculated by non-linear regression analysis.

[3] = test system: NALM-6 human leukemia cells; assay: MTT cytotoxicity assay, NALM-6; format: cell-based; conditions: for ED50 Nalm6: Table 4, individual lead compounds; for relative cytotoxic activity: ranking among the 21 individual compounds, Nalm6, MTT
Experimental: Stage (4): deconvolution and re-synthesis were guided by an iterative screening procedure during which the cytotoxic anti-cancer activities of the individual sub-libraries were measured against the human leukemia cell lines NALM-6 and MOLT-3 using MTT assays. […] However, this is not always true when even-splitting was not possible or some special consideration. […] Another special example is the small 10-member sublibrary CL2.
as §1, §2, §3, §4, §5

For `Fc1ccc(CCNC(=S)NCCc2ccc(F)cc2)cc1` [CL2j], the “stability (remark in place of IC50)” value [1] was “unstable compound”.

With `Fc1ccc(CCNC(=S)NCCc2ccc(Cl)cc2Cl)cc1` [CL10b] the “relative cytotoxic / biological activity” value [2] was “most active”.

For `COc1ccc(OC)c(CCNC(=S)NCCc2ccccc2OC)c1` [CL12a], the “relative cytotoxic / biological activity” value [2] was “most active”.

In the case of `COc1ccccc1CCNC(=S)NCCc1ccc(Cl)cc1Cl` [CL12b], the “relative cytotoxic / biological activity” value [2] is reported as “most active”.

In the case of `CC(NC(=S)NC(C)c1ccccc1)c1ccccc1` (stereo not drawn) [Compound L34A2A2], the “ED50 Nalm6” value [3] is reported as 50 µg/mL (≈ 176 µM).

In the case of `CC(NC(=S)NC(c1ccccc1)c1ccccc1)c1ccccc1` (stereo not drawn) [Compound L34A2A3], the “ED50 Nalm6” value [3] is reported as 50 µg/mL (≈ 144 µM).

With `CC(NC(=S)NC(c1ccccc1)(c1ccccc1)c1ccccc1)c1ccccc1` (stereo not drawn) [Compound L34A2A4] the “ED50 Nalm6” value [3] was 50 µg/mL (≈ 118 µM).

With `S=C(NC(c1ccccc1)c1ccccc1)NC(c1ccccc1)c1ccccc1` [Compound L34A3A3] the “ED50 Nalm6” value [3] was greater than 100 µg/mL.

For `S=C(NC(Cc1ccccc1)c1ccccc1)NC(c1ccccc1)c1ccccc1` (stereo not drawn) [Compound L34A3A5, 1-(1,2-Diphenylethyl)-3-(diphenylmethyl)-2-thiourea], the IC50 [2] was less than 10 µg/mL, the “ED50 Nalm6” value [3] was less than 10 µg/mL and the “relative cytotoxic activity” value [3] was “most active”.

For `S=C(NC(c1ccccc1)(c1ccccc1)c1ccccc1)NC(c1ccccc1)(c1ccccc1)c1ccccc1` [Compound L34A4A4], the “ED50 Nalm6” value [3] was 30 µg/mL (≈ 53.5 µM).

For `S=C(NC(Cc1ccccc1)c1ccccc1)NC(Cc1ccccc1)c1ccccc1` (stereo not drawn) [Compound L34A5A5, 1,3-Bis(1,2-diphenylethyl)-2-thiourea], the IC50 [2] was less than 10 µg/mL, the “ED50 Nalm6” value [3] was less than 10 µg/mL and the “relative cytotoxic activity” value [3] was “most active”.
